Assay results taken from ChEMBL document CHEMBL3286253, “Design, synthesis, and structure-activity relationship studies of novel thioether pleuromutilin derivatives as potent antibacterial agents” (J Med Chem, 2014).
Values after ≈ are worked out from the molar mass of the structure shown.

Tests used:
[1] = system: Staphylococcus aureus; experiment: Antibacterial activity against methicillin-resistant Staphylococcus aureus after 16 hrs by agar dilution method; assay type: functional
[2] = system: Staphylococcus epidermidis; experiment: Antibacterial activity against methicillin-sensitive Staphylococcus epidermidis after 16 hrs by agar dilution method; assay type: functional
[3] = system: Staphylococcus epidermidis; experiment: Antibacterial activity against methicillin-resistant Staphylococcus epidermidis after 16 hrs by agar dilution method; assay type: functional
[4] = AUC (0 to t) in Sprague-Dawley rat at 10 mg/kg, iv; assay type: ADME, organism-based; set-up: dose 10 mg/kg, route intravenous; settings: plasma
[5] = system: Staphylococcus aureus; experiment: Antibacterial activity against methicillin-sensitive Staphylococcus aureus after 16 hrs by agar dilution method; assay type: functional
[6] = system: Streptococcus pneumoniae; experiment: Antibacterial activity against penicillin-resistant Streptococcus pneumoniae after 16 hrs by agar dilution method; assay type: functional
[7] = system: Staphylococcus aureus; experiment: Antibacterial activity against Staphylococcus aureus […] after 16 hrs by agar dilution method; assay type: functional
[8] = Volume of distribution at steady state in Sprague-Dawley rat at 10 mg/kg, iv; assay type: ADME, organism-based; set-up: dose 10 mg/kg, route intravenous; settings: in vivo, read-out: Vdss
[9] = Elimination half life in Sprague-Dawley rat at 10 mg/kg, iv; assay type: ADME, organism-based; set-up: dose 10 mg/kg, route intravenous; settings: in vivo, read-out: beta t1/2 (converted)
[10] = Clearance in Sprague-Dawley rat at 10 mg/kg, iv; assay type: ADME, organism-based; set-up: dose 10 mg/kg, route intravenous; settings: in vivo
[11] = Mean residence time in Sprague-Dawley rat at 10 mg/kg, iv; assay type: ADME, organism-based; set-up: dose 10 mg/kg, route intravenous; settings: in vivo
[12] = biological target: Cytochrome P450 2D6 (Homo sapiens, UniProt P10635); experiment: Inhibition of CYP2D6 in human liver microsomes using dextromethorphan as substrate after 15 mins by LC/MS/MS analysis
[13] = system: Staphylococcus aureus; experiment: Antibacterial activity against of methicillin-sensitive Staphylococcus aureus ATCC 19636 infected in iv dosed mouse administered 1 hr after infection measured after 48 hrs; assay type: functional
[14] = system: Staphylococcus aureus; experiment: Antibacterial activity against clinical isolate of methicillin-sensitive Staphylococcus aureus infected in iv dosed mouse administered 1 hr after infection for 4 days; assay type: functional
[15] = Clearance in Sprague-Dawley rat at 2 mg/kg, iv administered as cassette dosing; assay type: ADME, organism-based; set-up: dose 2 mg/kg, route intravenous; settings: in vivo
[16] = system: Staphylococcus aureus; experiment: Antibacterial activity against of methicillin-resistant Staphylococcus aureus ATCC 33591 infected in iv dosed neutropenic mouse assessed as host survival administered 1 hr after infection measured after 24 hrs; assay type: functional; settings: ATCC 33591, iv
[17] = biological target: T1, Cytochrome P450 3A4 (Homo sapiens, UniProt P08684); experiment: Inhibition of CYP3A4 in human liver microsomes using testosterone as substrate after 15 mins by LC/MS/MS analysis
[18] = Mean residence time in Sprague-Dawley rat at 2 mg/kg, iv administered as cassette dosing; assay type: ADME, organism-based; set-up: dose 2 mg/kg, route intravenous; settings: in vivo
[19] = biological target: Cytochrome P450 2C9 (Homo sapiens, UniProt P11712); experiment: Inhibition of CYP2C9 in human liver microsomes using tolbutamide as substrate after 15 mins by LC/MS/MS analysis
[20] = system: Staphylococcus aureus; experiment: Antibacterial activity against of methicillin-sensitive Staphylococcus aureus ATCC 19636 infected in iv dosed mouse assessed as host survival administered 1 hr after infection measured after 48 hrs; assay type: functional; settings: ATCC 19636, iv
[21] = Volume of distribution at steady state in Sprague-Dawley rat at 2 mg/kg, iv administered as cassette dosing; assay type: ADME, organism-based; set-up: dose 2 mg/kg, route intravenous; settings: in vivo, read-out: Vdss
[22] = system: Staphylococcus aureus; experiment: Antibacterial activity against clinical isolate of methicillin-sensitive Staphylococcus aureus infected in iv dosed mouse assessed as host survival administered 1 hr after infection for 4 days; assay type: functional
[23] = AUC (0 to t) in Sprague-Dawley rat at 2 mg/kg, iv administered as cassette dosing; assay type: ADME, organism-based; set-up: dose 2 mg/kg, route intravenous; settings: plasma
[24] = biological target: T2, Cytochrome P450 1A2 (Homo sapiens, UniProt P05177); experiment: Inhibition of CYP1A2 in human liver microsomes using phenacetin as substrate after 15 mins by LC/MS/MS analysis
T2 sequence (P05177 whole entry): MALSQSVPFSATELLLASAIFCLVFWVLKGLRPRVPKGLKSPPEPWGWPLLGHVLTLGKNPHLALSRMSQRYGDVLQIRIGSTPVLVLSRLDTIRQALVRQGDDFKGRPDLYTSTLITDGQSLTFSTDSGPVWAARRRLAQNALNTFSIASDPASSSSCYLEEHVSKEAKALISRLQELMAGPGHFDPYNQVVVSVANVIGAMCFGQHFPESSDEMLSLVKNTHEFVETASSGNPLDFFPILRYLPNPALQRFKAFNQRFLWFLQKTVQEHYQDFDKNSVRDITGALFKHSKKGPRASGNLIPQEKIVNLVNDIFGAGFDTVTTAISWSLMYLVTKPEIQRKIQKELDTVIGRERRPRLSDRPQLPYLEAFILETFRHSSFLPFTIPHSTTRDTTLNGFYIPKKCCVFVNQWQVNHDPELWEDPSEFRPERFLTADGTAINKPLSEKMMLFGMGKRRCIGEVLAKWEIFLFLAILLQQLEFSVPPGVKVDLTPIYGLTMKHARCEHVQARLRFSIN

[25] = biological target: Cytochrome P450 2C19 (Homo sapiens, UniProt P33261); experiment: Inhibition of CYP2C19 in human liver microsomes using mephenytoin as substrate after 15 mins by LC/MS/MS analysis
[26] = Elimination half life in Sprague-Dawley rat at 2 mg/kg, iv administered as cassette dosing; assay type: ADME, organism-based; set-up: dose 2 mg/kg, route intravenous; settings: in vivo, read-out: beta t1/2 (converted)
[27] = biological target: T1, Cytochrome P450 3A4; experiment: Inhibition of CYP3A4 in human liver microsomes using midazolam as substrate after 15 mins by LC/MS/MS analysis
[28] = system: Staphylococcus aureus; experiment: Antibacterial activity against of methicillin-resistant Staphylococcus aureus ATCC 33591 infected in iv dosed neutropenic mouse administered 1 hr after infection measured after 24 hrs; assay type: functional
[29] = Chemical stability of aqueous solution state of the compound assessed as compound remaining after 24 hrs by UV/HPLC analysis; assay type: physicochemical; settings: read-out: Stability
[30] = Chemical stability of solid state of the compound assessed as compound remaining after 100 days by UV/HPLC analysis; assay type: physicochemical; settings: read-out: Stability
[31] = Plasma concentration in Sprague-Dawley rat at 10 mg/kg, iv after 15 mins; assay type: ADME, organism-based; set-up: dose 10 mg/kg, route intravenous
[32] = Chemical stability of solid state of the compound assessed as compound remaining after 24 hrs by UV/HPLC analysis; assay type: physicochemical; settings: read-out: Stability
[33] = Tmax in Sprague-Dawley rat at 10 mg/kg, iv; assay type: ADME, organism-based; set-up: dose 10 mg/kg, route intravenous; settings: in vivo
[34] = system: Rattus norvegicus; experiment: Tmax in Sprague-Dawley rat assessed as 14-O-(((5-hydroxymethylpyridin-3-yl)sulfanyl)acetyl)mutilin level at 10 mg/kg, iv; assay type: ADME, organism-based; set-up: dose 10 mg/kg, route intravenous; settings: in vivo
[35] = Chemical stability of aqueous solution state of the compound assessed as compound remaining after 14 days by UV/HPLC analysis; assay type: physicochemical; settings: read-out: Stability
[36] = Aqueous solubility of the compound in water at pH 7.4; settings: water

T1 sequence (P08684 whole entry): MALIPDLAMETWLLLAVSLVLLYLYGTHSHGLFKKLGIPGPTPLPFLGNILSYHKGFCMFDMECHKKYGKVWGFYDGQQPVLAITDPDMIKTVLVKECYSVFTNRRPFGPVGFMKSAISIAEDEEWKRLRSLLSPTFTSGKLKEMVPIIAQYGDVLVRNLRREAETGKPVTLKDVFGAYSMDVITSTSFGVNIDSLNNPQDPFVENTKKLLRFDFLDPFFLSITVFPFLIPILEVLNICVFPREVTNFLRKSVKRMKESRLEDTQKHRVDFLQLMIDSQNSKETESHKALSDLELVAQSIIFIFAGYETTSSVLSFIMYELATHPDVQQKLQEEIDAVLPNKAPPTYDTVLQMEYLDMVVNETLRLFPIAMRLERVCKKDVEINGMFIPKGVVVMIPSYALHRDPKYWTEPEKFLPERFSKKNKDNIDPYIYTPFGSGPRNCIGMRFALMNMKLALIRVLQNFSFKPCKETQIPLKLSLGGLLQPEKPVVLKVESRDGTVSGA
Chain of Cytochrome P450 2C19 (P33261 whole entry): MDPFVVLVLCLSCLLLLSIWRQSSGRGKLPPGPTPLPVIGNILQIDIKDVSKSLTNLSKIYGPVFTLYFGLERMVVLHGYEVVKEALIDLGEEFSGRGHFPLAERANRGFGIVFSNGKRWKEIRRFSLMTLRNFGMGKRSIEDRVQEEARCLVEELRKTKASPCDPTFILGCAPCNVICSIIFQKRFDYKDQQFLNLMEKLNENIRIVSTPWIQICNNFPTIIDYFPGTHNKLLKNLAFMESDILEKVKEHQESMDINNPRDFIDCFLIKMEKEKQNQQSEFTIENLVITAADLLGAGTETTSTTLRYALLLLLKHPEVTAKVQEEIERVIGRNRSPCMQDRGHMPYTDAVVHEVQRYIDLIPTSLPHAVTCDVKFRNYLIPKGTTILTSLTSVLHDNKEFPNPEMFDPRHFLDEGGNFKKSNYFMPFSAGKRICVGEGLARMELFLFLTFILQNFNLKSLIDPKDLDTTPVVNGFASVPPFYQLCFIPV
Chain of Cytochrome P450 2C9 (P11712 whole entry): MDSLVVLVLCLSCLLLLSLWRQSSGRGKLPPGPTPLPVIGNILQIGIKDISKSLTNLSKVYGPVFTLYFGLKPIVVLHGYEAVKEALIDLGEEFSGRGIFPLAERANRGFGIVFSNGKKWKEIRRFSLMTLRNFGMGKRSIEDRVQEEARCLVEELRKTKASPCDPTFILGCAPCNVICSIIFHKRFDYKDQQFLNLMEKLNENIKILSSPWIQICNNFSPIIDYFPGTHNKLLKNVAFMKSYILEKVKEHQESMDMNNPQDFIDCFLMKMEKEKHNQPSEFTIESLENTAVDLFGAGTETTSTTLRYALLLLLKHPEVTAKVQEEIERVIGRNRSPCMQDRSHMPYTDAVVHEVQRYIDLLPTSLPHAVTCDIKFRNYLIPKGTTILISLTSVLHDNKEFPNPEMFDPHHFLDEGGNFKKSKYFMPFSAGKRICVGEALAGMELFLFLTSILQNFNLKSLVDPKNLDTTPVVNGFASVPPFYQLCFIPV
Chain of Cytochrome P450 2D6 (P10635 whole entry): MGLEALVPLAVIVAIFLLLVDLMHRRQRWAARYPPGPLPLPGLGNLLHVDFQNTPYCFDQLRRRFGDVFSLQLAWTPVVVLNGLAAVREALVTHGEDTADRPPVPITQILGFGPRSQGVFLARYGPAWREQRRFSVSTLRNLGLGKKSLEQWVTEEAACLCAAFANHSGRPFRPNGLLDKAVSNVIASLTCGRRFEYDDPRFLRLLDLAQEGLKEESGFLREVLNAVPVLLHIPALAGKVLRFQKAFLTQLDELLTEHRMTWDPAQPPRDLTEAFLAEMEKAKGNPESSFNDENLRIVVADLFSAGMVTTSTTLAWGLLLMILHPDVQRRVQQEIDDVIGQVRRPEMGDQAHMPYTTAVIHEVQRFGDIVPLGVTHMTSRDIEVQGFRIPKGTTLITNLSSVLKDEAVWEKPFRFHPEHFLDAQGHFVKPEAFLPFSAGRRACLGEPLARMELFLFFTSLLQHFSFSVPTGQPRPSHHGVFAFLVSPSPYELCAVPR

Row | SMILES | MIC [1] [µg/mL] | MIC [2] [µg/mL] | MIC [3] [µg/mL] | AUC(0-t) [4] [ng·h/mL] | MIC [5] [µg/mL] | MIC [6] [µg/mL] | MIC [7] [µg/mL] | Vd [8] [L/kg] | half-life [9] [min] | clearance [10] [mL/min/kg] | MRT [11] [min] | MIC [13] [µg/mL] | MIC [14] [µg/mL] | ED50 [16] [mg/kg] | ED50 [20] [mg/kg] | ED50 [22] [mg/kg] | MIC [28] [µg/mL] | other results
1 | C=C[C@]1(C)C[C@@H](OC(=O)CSc2cncc(CO)c2)[C@]2(C)[C@H](C)CC[C@]3(CCC(=O)[C@H]32)[C@@H](C)[C@@H]1O | 0.031 (≈ 0.0618 µM) | 0.031 (≈ 0.0618 µM) | 0.031 (≈ 0.0618 µM) | 3480 | 0.063 (≈ 0.126 µM) | 0.063 (≈ 0.126 µM) | 0.031 (≈ 0.0618 µM) | 1.56 | 360 | 48 | 32.4 |  |  |  |  |  |  | 
2 | C=C[C@]1(C)C[C@@H](OC(=O)CSc2cncc(NC(=O)CN3CCC(O)CC3)c2)[C@]2(C)[C@H](C)CC[C@]3(CCC(=O)[C@H]32)[C@@H](C)[C@@H]1O | 0.063 (≈ 0.1 µM) | 0.125 (≈ 0.199 µM) | 0.063 (≈ 0.1 µM) |  | 0.125 (≈ 0.199 µM) | 0.063 (≈ 0.1 µM) | 0.031 (≈ 0.0494 µM) |  |  |  |  | 0.063 (≈ 0.1 µM) | 0.063 (≈ 0.1 µM) | 3.13 | 9.02 | 16.7 | 0.125 (≈ 0.199 µM) | IC50 [12]: 11.2 µM; clearance [15]: 53.3 mL/min/kg; IC50 [17]: 1.63 µM; MRT [18]: 36.6 min; IC50 [19]: > 25 µM; Vd [21]: 1.9 L/kg; AUC(0-t) [23]: 650 ng·h/mL; IC50 [24]: > 25 µM; IC50 [25]: > 25 µM; half-life [26]: 40.2 min; IC50 [27]: 1.89 µM
3 | C=C[C@]1(C)C[C@@H](OC(=O)CSc2cncc(COP(=O)([O-])[O-])c2)[C@]2(C)[C@H](C)CC[C@]3(CCC(=O)[C@H]32)[C@@H](C)[C@@H]1O.[Na+].[Na+] |  |  |  | 1580 |  |  |  | 3.26 | 382 | 83.3 | 39 |  | > 32 |  |  | 29.2 |  | remaining at 24 h [29]: 98.1%; remaining at 2400 h [30]: 98.1%; concentration at […] [31]: 3 ng/mL; remaining at 24 h [32]: 98.1%; Tmax [33]: 4.8 min; Tmax [34]: < 5 min; remaining at 336 h [35]: 98.1%; solubility [36]: 106 mg/mL
4 | CC(=O)NC[C@H]1CN(c2ccc(N3CCOCC3)c(F)c2)C(=O)O1 [LINEZOLID] |  |  |  |  |  |  |  |  |  |  |  | 1 (≈ 2.96 µM) | 1 (≈ 2.96 µM) | 9.39 | 7.89 | 15.6 | 1 (≈ 2.96 µM) | 
